{"source": "patent US20260263368A1", "about": "“DOUBLE-RELEASE THREE-LAYERED BR[…] AND PREPARATION METHOD THEREOF” (TAIZHOU OVERSEAS PHARMACEUTICALS, LTD., priority 2023, published 2026)", "origin": "cited, not measured here", "details": "background statement", "data": [{"smiles": "CCC[C@@H]1CC(=O)N([C@@H](CC)C(N)=O)C1", "note": "[Brivaracetam, (2S)-2-[(4R)-2-oxo-4-propyltetrahydro-1H-pyrrol-1-yl]butanamide]", "values": [{"measurement": "water solubility", "result": "good water solubility"}]}]}
